In the NIST ThermoML archive (doi:10.1016/j.jct.2013.04.001):

Assay: mn = molality of the nth substance listed, in mol/kg
Settings: 101 kPa, Liquid; for mass density: Pycnometric method; for viscosity: Capillary tube (Ostwald / Ubbelohde) method

N=C(N)NCCC[C@H](N)C(=O)O [L-arginine] + O
Settings	mass density [kg/m3]	viscosity [mPa·s]
293.15 K, m1 = 0.025	999.51	–
293.15 K, m1 = 0.05	1000.78	–
293.15 K, m1 = 0.075	1002.04	–
293.15 K, m1 = 0.1	1003.3	–
293.15 K, m1 = 0.125	1004.55	–
293.15 K, m1 = 0.15	1005.79	–
293.15 K, m1 = 0.175	1007.02	–
293.15 K, m1 = 0.2	1008.25	–
298.15 K, m1 = 0.025	998.35	0.9009
298.15 K, m1 = 0.05	999.62	0.9108
298.15 K, m1 = 0.075	1000.89	0.9207
298.15 K, m1 = 0.1	1002.14	0.93
298.15 K, m1 = 0.125	1003.4	0.9393
298.15 K, m1 = 0.15	1004.64	0.9486
298.15 K, m1 = 0.175	1005.88	0.9579
298.15 K, m1 = 0.2	1007.11	0.9668
303.15 K, m1 = 0.025	996.96	0.8062
303.15 K, m1 = 0.05	998.24	0.8145
303.15 K, m1 = 0.075	999.51	0.8225
303.15 K, m1 = 0.1	1000.78	0.8304
303.15 K, m1 = 0.125	1002.03	0.838
303.15 K, m1 = 0.15	1003.28	0.8457
303.15 K, m1 = 0.175	1004.53	0.8533
303.15 K, m1 = 0.2	1005.76	0.8609
308.15 K, m1 = 0.025	995.36	0.7267
308.15 K, m1 = 0.05	996.65	0.7336
308.15 K, m1 = 0.075	997.93	0.7403
308.15 K, m1 = 0.1	999.2	0.7471
308.15 K, m1 = 0.125	1000.46	0.7535
308.15 K, m1 = 0.15	1001.72	0.7601
308.15 K, m1 = 0.175	1002.97	0.7664
308.15 K, m1 = 0.2	1004.22	0.7726
313.15 K, m1 = 0.025	993.55	0.6593
313.15 K, m1 = 0.05	994.85	0.6652
313.15 K, m1 = 0.075	996.14	0.6708
313.15 K, m1 = 0.1	997.42	0.6764
313.15 K, m1 = 0.125	998.69	0.6818
313.15 K, m1 = 0.15	999.96	0.6873
313.15 K, m1 = 0.175	1001.22	0.6926
313.15 K, m1 = 0.2	1002.47	0.6976
318.15 K, m1 = 0.025	991.55	0.6031
318.15 K, m1 = 0.05	992.86	0.608
318.15 K, m1 = 0.075	994.16	0.6128
318.15 K, m1 = 0.1	995.45	0.6174
318.15 K, m1 = 0.125	996.74	0.622
318.15 K, m1 = 0.15	998.01	0.6266
318.15 K, m1 = 0.175	999.28	0.6311
318.15 K, m1 = 0.2	1000.55	0.6355
